Reference: patent publication US11274073B2, “TRPV1 modulator compounds” (ANTALGENICS, S.L., priority 2017, dated 2022)

Target: T1, rat TRPV1 channel (Rattus norvegicus, UniProt O35433)
T1 construct: expressed in transfected cells; host or cells: SH-SY5Y (human neuroblastoma) stably expressing rat TRPV1, under puromycin selection
Test: Calcium microfluorometry assay on TRPV1-SH-SY5Y cells, single concentration 10 μM
Assay type: cell-based
Conditions: for TRPV1 activation at 10 μM (% ± SD): compound 10 μM, Fluo-4 NW fluorescence, Cap (10 μM capsaicin) = 100%; for TRPV1 blockage at 10 μM (% ± SD): compound 10 μM before stimulation with 10 μM capsaicin, RR (10 μM Ruthenium Red) = 100%
Experimental: The activity of the compounds was determined on TRPV1 expressing cells (TRPV1-SH-SY5Y) by Calcium microfluorometry assay.
SH-SY5Y cells stably expressing rat TRPV1 channel (SH-SY5Y-TRPV1) were grown in Earle's minimum essential medium (MEM) containing 10% (v/v) of FCS, 1% nonessential amino acids, 2 mM L-glutamine, 100 μg/ml streptomycin, 100 U/ml penicillin, and 0.4 μg/ml puromycin in a humidity-controlled incubator with 5% CO2 and at 37° C. For fluorescence assays, cells expressing TRPV1 channel (TRPV1-SH-SY5Y) were seeded in 96-well plates (Corning Incorporated, Corning, N.Y.) at a cell density of 40,000 cells 2 days before treatment. The day of treatment the medium was replaced with 100 μL of the dye loading solution Fluo-4 NW supplemented with probenecid 2.5 mM. After incubation at 37° C. in a humidified atmosphere of 5% CO2 for 60 minutes, plates were transferred to a fluorescence plate reader (Polastar Omega BMG Labtech). The baseline fluorescence of Fluo-4 dye ([…]) was recorded for 4 cycles. […] The antagonist (10 μM Ruthenium Red for TRPV1) was added for the blockade. The changes in fluorescence intensity were recorded during 10 cycles more.

T1 sequence (O35433 whole entry): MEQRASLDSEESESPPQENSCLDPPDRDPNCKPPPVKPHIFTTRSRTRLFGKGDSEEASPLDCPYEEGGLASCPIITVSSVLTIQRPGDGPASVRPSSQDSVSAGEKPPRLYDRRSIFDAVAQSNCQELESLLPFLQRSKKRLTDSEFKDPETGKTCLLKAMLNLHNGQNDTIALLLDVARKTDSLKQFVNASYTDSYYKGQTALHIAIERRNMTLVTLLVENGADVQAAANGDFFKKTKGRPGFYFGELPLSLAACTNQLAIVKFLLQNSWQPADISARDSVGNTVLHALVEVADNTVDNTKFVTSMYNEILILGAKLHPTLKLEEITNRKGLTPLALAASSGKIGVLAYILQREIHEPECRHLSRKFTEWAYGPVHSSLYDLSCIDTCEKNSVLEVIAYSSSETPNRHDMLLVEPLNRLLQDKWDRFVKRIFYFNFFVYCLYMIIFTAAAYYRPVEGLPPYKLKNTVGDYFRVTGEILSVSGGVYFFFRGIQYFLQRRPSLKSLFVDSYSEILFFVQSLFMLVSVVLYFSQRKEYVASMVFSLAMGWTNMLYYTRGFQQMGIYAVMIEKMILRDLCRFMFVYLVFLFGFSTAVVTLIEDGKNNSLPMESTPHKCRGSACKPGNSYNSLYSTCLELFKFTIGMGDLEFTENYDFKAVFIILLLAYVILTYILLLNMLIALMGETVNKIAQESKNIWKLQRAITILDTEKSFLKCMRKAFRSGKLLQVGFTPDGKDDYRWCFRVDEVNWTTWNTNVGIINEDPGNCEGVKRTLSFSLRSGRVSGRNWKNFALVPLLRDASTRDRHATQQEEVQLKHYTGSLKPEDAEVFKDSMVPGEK

| Compound | TRPV1 activation at 10 μM (% ± SD) | TRPV1 blockage at 10 μM (% ± SD) |
| --- | --- | --- |
| CCCCCCCC/C=C\CCCCCCCC(=O)OCC(=O)NCc1ccc(O)c(OC)c1 [Ex-42, 2-((4-hydroxy-3-methoxy-benzyl)amino)-2-oxoethyl oleate] | 77.19 ± 11.95% |  |
| CCCCCCCCC(=O)OCC(=O)NCc1cc(OC)c(O)cc1I [Ex-31, 2-((4-hydroxy-2-iodo-5-methoxybenzyl)amino)-2-oxoethyl nonanoate] |  | 25.23 ± 7.63% |
| COc1cc(CNC(=O)COC(=O)CC(C)C)c(I)cc1O [Ex-21, 2-((4-hydroxy-2-iodo-5-methoxybenzyl)amino)-2-oxoethyl 3-methyl-butanoate] |  | 8.35 ± 4.10% |
| CCCCCC(=O)OCC(=O)NCc1cc(OC)c(O)cc1I [Ex-23, 2-((4-hydroxy-2-iodo-5-methoxybenzyl)amino)-2-oxoethyl hexanoate] |  | 23.14 ± 7.81% |
| N.N.N.N.N.N.N.N.N.N.N.N.N.N.[Cl-].[Cl-].[Cl-].[Cl-].[Cl-].[Cl-].[O-2].[O-2].[Ru+3].[Ru+3].[Ru+4] [RR, Ruthenium Red, reference compound] |  | 100% |
| CCCCC/C=C\C/C=C\C/C=C\C/C=C\CCCC(=O)OCC(=O)NCCc1ccc(O)c(O)c1 [Ex-64, (5Z,8Z,11Z,14Z)-2-((3,4-dihydroxyphenethyl)amino)-2-oxoethyl icosa-5,8,11,14-tetraenoate] | 79.05 ± 11.25% |  |
| CCCCCC[C@H](C/C=C\CCCCCCCC(=O)OCC(=O)NCc1ccc(O)c(OC)c1)OC(=O)Cc1ccccc1 [Ex-46, (Z)-2-((4-hydroxy-3-methoxy-benzyl)amino)-2-oxoethyl 12-(2-phenylacetoxy)octadec-9-enoate] | 33.16 ± 9.97% |  |
| COc1cc(CNC(=O)COC(=O)CC/C(C)=C/CC/C(C)=C/CC/C=C(\C)CCC=C(C)CCC=C(C)C)c(I)cc1O (stereo in doubt) [Ex-53, (4E,8E,12E,16E)-2-((4-hydroxy-2-iodo-5-methoxy-benzyl)amino)-2-oxoethyl 4,8,13,17,21-pentamethyl-docosa-4,8,12,16,20-pentaenoate] |  | 31.05 ± 1.46% |
| CC(C)=CCC/C(C)=C/C(=O)OCC(=O)NCCc1ccc(O)c(O)c1 [Ex-58, (E)-2-((3,4-dihydroxyphenethyl)amino)-2-oxoethyl 3,7-dimethylocta-2,6-dienoate] | 88.12 ± 9.76% |  |
| CCCCCCCCCC(=O)OCC(=O)NCc1ccc(O)c(OC)c1 [Ex-34, 2-((4-hydroxy-3-methoxy-benzyl)amino)-2-oxoethyl decanoate] | 47.91 ± 10.32% |  |
| CCCCCCCCC(=O)OCC(=O)NCc1ccc(O)c(OC)c1 [Ex-30, 2-((4-hydroxy-3-methoxybenzyl)amino)-2-oxoethyl nonanoate] | 68.45 ± 7.20% |  |
| CCCCCCC(=O)OCC(=O)NCc1cc(OC)c(O)cc1I [Ex-27, 2-((4-hydroxy-2-iodo-5-methoxybenzyl)amino)-2-oxoethyl heptanoate] |  | 21.80 ± 5.41% |
| CCCCC/C=C\C/C=C\C/C=C\C/C=C\CCCC(=O)OCC(=O)NCCc1cc(O)c(O)cc1I [Ex-65, (5Z,8Z,11Z,14Z)-2-((4,5-dihydroxy-2-iodophenethyl)-amino)-2-oxoethyl icosa-5,8,11,14-tetraenoate] |  | 6.71 ± 2.18% |
| CCCCCC[C@@H](O)C/C=C\CCCCCCCC(=O)OCC(=O)NCc1cc(OC)c(O)cc1I [Ex-45, (R,Z)-2-((4-hydroxy-2-iodo-5-methoxybenzyl)amino)-2-oxoethyl 12-hydroxyoctadec-9-enoate] |  | 21.74 ± 7.05% |
| C/C=C/C=C/C(=O)OCC(=O)NCc1cc(OC)c(O)cc1I [Ex-25, (2E,4E)-2-((4-hydroxy-2-iodo-5-methoxybenzyl)amino)-2-oxoethyl hexa-2,4-dienoate] |  | 13.98 ± 5.98% |
| CCCCCC[C@H](C/C=C\CCCCCCCC(=O)OCC(=O)NCc1cc(OC)c(O)cc1I)OC(=O)Cc1ccccc1 [Ex-47, (Z)-2-((4-hydroxy-2-iodo-5-methoxybenzyl)amino)-2-oxoethyl 12-(2-phenyl-acetoxy)octadec-9-enoate] |  | 63.29 ± 12.80% |
| CCCCC(=O)OCC(=O)NCc1ccc(O)c(OC)c1 [Ex-18, 2-((4-hydroxy-3-methoxy-benzyl)amino)-2-oxoethyl pentanoate] | 29.43 ± 14.90% |  |
| CCCCCCCCCCCCCCCCCC(=O)OCC(=O)NCc1ccc(O)c(OC)c1 [Ex-40, 2-((4-hydroxy-3-methoxy-benzyl)amino)-2-oxoethyl stearate] | 54.74 ± 17.75% |  |
| CCCC(=O)OCC(=O)NCc1cc(OC)c(O)cc1I [Ex-17, 2-((4-hydroxy-2-iodo-5-methoxybenzyl)amino)-2-oxoethyl butyrate] |  | 14.44 ± 0.27% |

| Compound | TRPV1 activation at 10 μM (% ± SD) | TRPV1 blockage at 10 μM (% ± SD) |
| --- | --- | --- |
| COc1cc(CNC(=O)COC(=O)CC(C)C)ccc1O [Ex-20, 2-((4-hydroxy-3-methoxy-benzyl)amino)-2-oxoethyl 3-methylbutanoate] | 35.82 ± 3.48% |  |
| CCCCCCCC(=O)OCC(=O)NCc1ccc(O)c(OC)c1 [Ex-28, 2-((4-hydroxy-3-methoxy-benzyl)amino)-2-oxoethyl octanoate] | 54.08 ± 4.09% |  |
| CCCCCCCC/C=C\CCCCCCCC(=O)OCC(=O)NCCc1cc(O)c(O)cc1I [Ex-63, 2-((4,5-dihydroxy-2-iodophenethyl)amino)-2-oxoethyl oleate] |  | 1.13 ± 5.56% |
| CCCCC/C=C\C/C=C\C/C=C\C/C=C\CCCC(=O)OCC(=O)NCc1cc(OC)c(O)cc1I [Ex-51, (5Z,8Z,11Z,14Z)-2-((4-hydroxy-2-iodo-5-methoxy-benzyl)amino)-2-oxoethyl icosa-5,8,11,14-tetraenoate] |  | 30.85 ± 5.87% |
| CCCCC(=O)OCC(=O)NCc1cc(OC)c(O)cc1I [Ex-19, 2-((4-hydroxy-2-iodo-5-methoxybenzyl)amino)-2-oxoethyl pentanoate] |  | 21.85 ± 2.85% |
| CCCCCCCCCC(=O)OCC(=O)NCc1cc(OC)c(O)cc1I [Ex-35, 2-((4-hydroxy-2-iodo-5-methoxybenzyl)amino)-2-oxoethyl decanoate] |  | 20.48 ± 9.67% |
| CCCCCCCCCCCCCCCCCC(=O)OCC(=O)NCc1cc(OC)c(O)cc1I [Ex-41, 2-((4-hydroxy-2-iodo-5-methoxybenzyl)amino)-2-oxoethyl stearate] |  | 38.89 ± 3.53% |
| C/C=C/C=C/C(=O)OCC(=O)NCc1ccc(O)c(OC)c1 [Ex-24, (2E,4E)-2-((4-hydroxy-3-methoxybenzyl)amino)-2-oxoethyl hexa-2,4-dienoate] | 75.59 ± 6.25% |  |
| COc1cc(CNC(=O)CCCC/C=C/C(C)C)ccc1O [Capsaicin, reference compound] | 100% |  |
| CCCCCC[C@@H](O)C/C=C\CCCCCCCC(=O)OCC(=O)NCc1ccc(O)c(OC)c1 [Ex-44, (R,Z)-2-((4-hydroxy-3-methoxybenzyl)amino)-2-oxoethyl 12-hydroxyoctadec-9-enoate] | 60.84 ± 12.80% |  |
| CCCCC/C=C\C/C=C\C/C=C\C/C=C\CCCC(=O)OCC(=O)NCc1ccc(O)c(OC)c1 [Ex-50, (5Z,8Z,11Z,14Z)-2-((4-hydroxy-3-methoxy-benzyl)amino)-2-oxoethyl icosa-5,8,11,14-tetraenoate] | 73.80 ± 7.42% |  |
| CC(C)=CCC/C(C)=C/C(=O)OCC(=O)NCCc1cc(O)c(O)cc1I [Ex-59, (E)-2-((4,5-dihydroxy-2-iodophenethyl)amino)-2-oxoethyl 3,7-dimethylocta-2,6-dienoate] |  | 46.3 ± 12.70% |
| CCCCCCCC(=O)OCC(=O)NCc1cc(OC)c(O)cc1I [Ex-29, 2-((4-hydroxy-2-iodo-5-methoxybenzyl)amino)-2-oxoethyl octanoate] |  | 31.23 ± 8.34% |
| CCCCCCCC/C=C\CCCCCCCC(=O)OCC(=O)NCCc1ccc(O)c(O)c1 [Ex-62, 2-((3,4-dihydroxyphenethyl)-amino)-2-oxoethyl oleate] | 78.48 ± 4.61% |  |
| CCCCCCC(=O)OCC(=O)NCc1ccc(O)c(OC)c1 [Ex-26, 2-((4-hydroxy-3-methoxy-benzyl)amino)-2-oxoethyl heptanoate] | 74.41 ± 17.66% |  |
| CCCCCCCC/C=C\CCCCCCCC(=O)OCC(=O)NCc1cc(OC)c(O)cc1I [Ex-43, 2-((4-hydroxy-2-iodo-5-methoxybenzyl)amino)-2-oxoethyl oleate] |  | 45.68 ± 14.26% |
| CCCCCCCCCCCCCCC(=O)OCC(=O)NCc1cc(OC)c(O)cc1I [Ex-39, 2-((4-hydroxy-2-iodo-5-methoxybenzyl)amino)-2-oxoethyl pentadecanoate] |  | 21.82 ± 4.75% |
| CCCC(=O)OCC(=O)NCc1ccc(O)c(OC)c1 [Ex-16, 2-((4-hydroxy-3-methoxybenzyl)amino)-2-oxoethyl butyrate] | 25.59 ± 4.29% |  |
| CCCCCC(=O)OCC(=O)NCc1ccc(O)c(OC)c1 [Ex-22, 2-((4-hydroxy-3-methoxy-benzyl)amino)-2-oxoethyl hexanoate] | 73.32 ± 12.83% |  |
